Laboratory results: patent US20160166578A1, “METHOD FOR TREATING TYPE I AND TYPE II DIABETES” (PRISM Phama Ltd., priority 2012, published 2016)

Experiments:
[1] = test system: Wnt signaling pathway; assay: Reporter gene assay (SuperTOPFlash luciferase, STF reporter cell line); type: cell-based; settings: Homo sapiens; at a concentration of 1 μM; Hek-293 STF reporter cells, LiCl stimulation, 24 hours; read-out: inhibitory activity
Protocol: Screening for inhibitory action of the Wnt signaling pathway was carried out according to the following procedure using an STF reporter cell line (human embryonic kidney cell line Hek-293 stably transfected with the firefly luciferase gene under the control of eight tandem repeats of the SuperTOPFlash reporter element; Cell 116:883-895, 2004).
Growth Medium: Dulbecco's Modified Eagle Medium (DMEM), 10% FBS, Pen-Strep, supplemented with 400 µg/ml G418 antibiotic to maintain selection of SuperTOPFlash driven luciferase gene.
On the day prior to assay, cells were split into a white opaque 96-well plate at 20,000 cells per well in 200 microliters of complete growth medium. The plate was incubated overnight at 37° C., 5% CO2 to allow the cells to attach to the surface.
The next day, the inhibitors were prepared to be tested in complete growth medium, without G418, at 2× the desired final concentration (all conditions are done in duplicate). The existing medium was carefully pipetted from each well using a multiple pipettor. 50 microliters of fresh growth medium (without G148) containing the inhibitor (Compound A) was added to each well. […]
After 24 hours, 100 microliters of BrightGlo reagent (Promega, Madison, Wis.) was added to each well. […] The plate was read using a Packard TopCount (PerkinElmer, Inc.).

[2] = Blood glucose levels in human clinical trial (patients with cancer and type II diabetes); type: in vivo; settings: for blood glucose levels: 7 days continuous IV infusion, one week on and one week off
Protocol: Patients with cancer and type II diabetes were enrolled in a clinical trial (Safety and Efficacy Study in Subjects With Advanced Solid). The efficacy of Compound A for the treatment of diabetes was investigated by measurement of the blood glucose level of the patients. Conditions of patients enrolled in this study are as follows:
(Patient 101), with sigmoid colon cancer and diabetes. Compound A was administered at 40 mg/m^2/day, and Metformin Hydrochloride
(Patient 1103), with colon cancer and diabetes. Compound A was administered at 905 mg/m^2/day, in addition patient was treated with pioglitazone hydrochloride (Actos) and Metformin Hydrochloride.
Compound A administration was 7 days continuous IV infusion. The cycle of administration is one week on and one week off.
In addition to already prescribed drugs (pioglitazone hydrochloride or Metformin Hydrochloride) as basic treatment, Compound A with a defined dose for each patient was intravenously administrated for 7 continuous days followed by a 7-day rest period. This 14 days period with 7-day infusion period and 7-day rest period is defined as one cycle. Basic treatment for diabetes was continuously performed during this period. During the administration period (first, fifth and eighth day of each cycle) or after the administration, blood glucose levels were measured.

[3] = Primate study in aged hyperglycemic monkeys (c-peptide, insulin, HbA1c); type: in vivo, Macaca fascicularis; settings: 8 mg/Kg/Day continuous infusion i.p., 84 days
Protocol: Animals: aged Macaca fascicularis (21 to 27 years old) monkeys that have hyperglycemia, N=3.
Administration: Compound A (8 mg/Kg/Day) administrated by continuous infusion by i.p. from day 152 to 236 (84 days). Biochemical tests: c-peptide, insulin, and HbA1c levels were measured every week.
C-peptide, a byproduct of insulin production that is elevated in hyperglycemia, was measured using ELECSYS c-peptide assay (Roche Diagnostics, Hoffmann-La Roche Ltd.) with electrochemiluminescence assay (ECLIA) readout.
Insulin levels were measured using the E test II IRI, EIA method (TOSOH Corp., Tokyo). Insulin levels are elevated in hyperglycemia.
HbA1c or glycated hemoglobin (hemoglobin A1c) was measured to identify the average glycated hemoglobin, as a measure of plasma glucose concentration, over the previous months prior to the measurement. HbA1c levels are elevated in hyperglycemia. HbA1c was measured using the Nordia N HbA1c assay kit, enzyme method (Sekisui Medical Co., Ltd., Japan).

SMILES: C[C@H]1[C@H]2N(C(=O)CN(C)N2C(=O)NCc2ccccc2)[C@@H](Cc2ccc(OP(=O)(O)O)cc2)C(=O)N1Cc1cccc2cccnc12 [Compound A, 4-(((6S,9S,9aS)-1-(benzylcarbamoyl)-2,9-dimethyl-4,7-dioxo-8-(quinolin-8-ylmethyl)octahydro-1H-pyrazino[2,1-c][1,2,4]triazin-6-yl)methyl)phenyl dihydrogen phosphate]
- inhibition at 1 µM [1]: > 50%
- blood glucose levels ([2]; Patient 101, 40 mg/m^2/day, with Metformin Hydrochloride, by the end of every cycle (FIG. 1)): blood glucose levels are reduced
- blood glucose levels ([2]; Patient 1103, 905 mg/m^2/day, with pioglitazone hydrochloride and Metformin Hydrochloride, by the end of every cycle (FIG. 2)): blood glucose levels are reduced
- blood glucose level of patients with type II diabetes not adequately controlled by known drugs ([2]; concomitant use with known drugs for type II diabetes): significantly decreased
- adverse effects of concomitant use ([2]; patients with type II diabetes, concomitant with known drugs for diabetes): No adverse effects
- c-peptide levels ([3]; FIG. 3): c-peptide levels fall over time
- insulin levels ([3]; FIG. 4): insulin levels fall over time
- HbA1c levels (ratio of mmol HbA1c to mol hemoglobin) ([3]; FIG. 5): HbA1c levels fall over time
